Results: paper doi:10.1101/2023.08.21.552681v1 (biorxiv, 2023)
Like-named read-outs stand apart in the source and are kept apart here.

Columns and labels:
[1] = molecular target: T1, ctdWDR91 (Homo sapiens, UniProt A4D1P6); experiment: biochemical
T1 sequence (A4D1P6 392-747): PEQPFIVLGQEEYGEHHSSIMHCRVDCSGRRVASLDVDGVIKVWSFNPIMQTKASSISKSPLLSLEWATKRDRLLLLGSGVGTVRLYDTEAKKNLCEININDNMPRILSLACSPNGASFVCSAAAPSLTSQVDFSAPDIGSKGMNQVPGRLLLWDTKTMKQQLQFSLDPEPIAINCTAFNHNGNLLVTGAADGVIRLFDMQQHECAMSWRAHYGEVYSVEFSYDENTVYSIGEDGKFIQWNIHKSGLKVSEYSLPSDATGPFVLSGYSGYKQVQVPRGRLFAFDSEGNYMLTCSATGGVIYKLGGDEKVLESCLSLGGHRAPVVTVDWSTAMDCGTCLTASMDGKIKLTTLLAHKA

[2] = molecular target: T1, ctdWDR91; experiment: biochemical; remark: listed apart in the source

| Kd [1] [µM] | Kd [2] [µM] | SMILES |
| --- | --- | --- |
| > 45 | – | O=C(NC1CCc2cc(Cl)ccc21)c1ccc(N2CCC(O)C2)cc1 (stereo not drawn) [DRGG001981a] |
| > 45 | – | O=C(NCC1CCN(c2ccc(F)cc2)C1)c1ccc(Cl)cc1 (stereo not drawn) [DRGG001960a] |
| > 45 | – | CC1CCN(c2ccc(C(=O)NC3(c4ccc(F)cc4)CC3)cc2)C1 (stereo not drawn) [DRGG002016a] |
| > 45 | – | O=C(NCC1CCN(c2ccc(Cl)cc2)C1)c1ccc(C2CCCOC2)cc1 (stereo not drawn) [DRGG001987a] |
| > 45 | – | C[C@@H](NC(=O)c1ccc(N2CCC(O)C2)cc1)c1ccc2c(c1)CCCC2 (stereo partly drawn) [DRGG001990a] |
| > 45 | – | O=C(Nc1cccc2c1CN(C1CC1)C2)c1ccc(N2CCC(O)C2)cc1 (stereo not drawn) [DRGG001985a] |
| > 45 | – | O=C(NCCc1ccc(Cl)cc1)c1ccc(N2CCC(O)C2)cc1 (stereo not drawn) [DRGG001935a] |
| > 20 | – | O=C(NC1(c2ccc(Cl)cc2)CC1)c1ccc(N2CCC(O)C2)cc1 (stereo not drawn) [DRGG001980a] |
| 12 | – | O=C(NCc1ccc2nsnc2c1)c1ccc(N2CCC(O)C2)cc1 (stereo not drawn) [DRGG002011a] |
| > 45 | – | O=C(NCC1CCN(c2ccc(Cl)cc2)C1)c1ccc(OC2CCOC2)cc1 (stereo not drawn) [DRGG001945a] |
| > 45 | – | N#CC1(c2ccc(C(=O)NCC3CCN(c4ccc(Cl)cc4)C3)cc2)CC1 (stereo not drawn) [DRGG001993a] |
| > 45 | – | O=C(NC1CC2(CCC2)Oc2ccccc21)c1ccc(N2CCC(O)C2)cc1 (stereo not drawn) [DRGG001975a] |
| > 45 | – | O=C(NCC1CCN(c2ccc(F)cc2)C1)NCC1(c2ccc(Cl)cc2)CC1 (stereo not drawn) [DRGG002008a] |
| – | > 45 | NC(=O)[C@]12CCOC[C@H]1CN(C(=O)c1cccc(N3CCCC3)c1)C2 [MRGG044792a] |
| – | > 45 | O=[N+]([O-])c1ccc(N2CCCC2)cc1NCc1ccc(Cl)cc1 [MRGG044778a] |
| – | > 45 | Cc1ccc(C(=O)NC(c2ccc(Cl)cc2)C2CC2)cc1[N+](=O)[O-] (stereo not drawn) [MRGG044833a] |
| – | > 45 | O=C(NC(CO)c1ccc(Cl)cc1)c1cccc2cn[nH]c12 (stereo not drawn) [MRGG044832a] |
| – | > 45 | Cc1ccc(C(=O)N(C)C)cc1-c1cccc(N2CCCC2)c1 [MRGG045315a] |
| – | > 45 | COC(=O)c1cccc(-c2cccc(NC3CCN(C4CC4)C3)c2)c1 (stereo not drawn) [MRGG045314a] |
| – | > 45 | O=C(Cc1ccc(O)c(O)c1)NC(CC1CC1)c1ccc(Cl)cc1 (stereo not drawn) [MRGG045306a] |
| – | > 45 | N#Cc1cn(CC2CCN(c3ccccc3)C2)c(=O)[nH]c1=O (stereo not drawn) [MRGG044810a] |
| – | > 45 | CN(Cc1ccccc1OCc1ccccc1F)C1CCN(C2CC2)C1 (stereo not drawn) [MRGG045303a] |
| – | > 45 | O=C(CSc1nnc(-c2ccc(Cl)cc2)o1)NCc1ccc(O)c(O)c1 [MRGG045283a] |
| – | > 45 | COc1cccc(N2CCC(CNC(=O)c3cccc(F)c3)C2)c1 (stereo not drawn) [MRGG044811a] |
| – | > 45 | COc1ccc(C(NC(=O)CN2CCn3ncnc3C2)c2ccc(OC)cc2)cc1 [MRGG044794a] |
| – | > 45 | CN(CC1CCN(Cc2ccccc2)C1)C(=O)Cc1cccc(O)c1 (stereo not drawn) [MRGG044819a] |

Second part, the molecule before the results:

| SMILES | Kd [1] [µM] | Kd [2] [µM] |
| --- | --- | --- |
| Cc1cc(O)c(O)cc1C(=O)N[C@H]1CC(=O)N(C)[C@@H]1c1ccc(Cl)cc1 [MRGG045330a] | – | > 45 |
| CN(Cc1ccccc1-n1cccc1)C(=O)C1CCCN1C1CC1 (stereo not drawn) [MRGG045309a] | – | > 45 |
| Cc1cc2ccccc2n1CC(=O)Nc1cc(C(N)=O)ccc1N1CCCC1 [MRGG044789a] | – | > 45 |
| C[C@H]1C(=O)N(CCN2CCc3ccccc32)C(=O)N1C [MRGG045307a] | – | > 45 |
| N#Cc1cc(C#N)cc(CNc2cccc(CN3CCCC3=O)c2)c1 [MRGG045333a] | – | > 45 |
| Cc1cccc(C#CCN2C[C@@H]3C[C@H]2CN3C2CC2)c1 [MRGG045294a] | – | > 45 |
| O=C(NCc1ccc2cnccc2c1)c1snc(O)c1Cl [MRGG045296a] | – | > 45 |
| CC1CN(C2CC2)CC1NC(=O)CCCCc1c[nH]c2ccccc12 (stereo not drawn) [MRGG045292a] | – | > 45 |
| CC1(CNC2CCN(C3CC3)C2)CCN(C(=O)OC(C)(C)C)C1 (stereo not drawn) [MRGG045285a] | – | > 45 |
| NC12CCCC1CN(C(=O)c1nccc3cccnc13)C2 (stereo not drawn) [MRGG044815a] | – | > 45 |
| O=c1c2c(F)cccc2ncn1CC1CCN(C2CC2)C1 (stereo not drawn) [MRGG044781a] | – | > 45 |
| CN(CCc1ccccc1)C(=O)c1nc2sccn2c1CN1CC[C@H](O)C1 [MRGG044785a] | – | > 45 |
| CCN(CC(=O)NCc1cc(Cl)c(Cl)cc1Cl)C1CC1 [MRGG045269a] | – | > 45 |
| N#Cc1ccc(NCc2cc(Cl)cc(C(F)(F)F)c2)cn1 [MRGG044806a] | – | > 45 |
| O=C(NCCc1ccc(O)c(O)c1)Nc1cccc(N2CCNC2=O)c1 [MRGG044825a] | – | > 45 |
| CC(=O)N1CCCC(C(=O)N(C)CCc2ccc(F)cc2)C1 (stereo not drawn) [MRGG044837a] | – | > 45 |
| COc1ccnc(N(C)C(=O)CCn2cccc2)n1 [MRGG045324a] | – | > 45 |
| CS(=O)(=O)N1CCC(CN(Cc2cccc(F)c2)C2CC2)C1 (stereo not drawn) [MRGG045308a] | – | > 45 |
| CC1CN(C2CC2)CC1NC1CCN(C2CC2)CC1 (stereo not drawn) [MRGG045338a] | – | > 45 |
| O=C1Cc2ccc(C(=O)NC3Cc4ccccc4C3O)cc2N1 (stereo not drawn) [MRGG044800a] | – | > 45 |
| CN(Cc1ccc(-c2ccc(Cl)cc2)o1)C(=O)CN1C(=O)c2cccnc2C1=O [MRGG045274a] | – | > 45 |
| COC(=O)c1ccc(C(=O)N2C3CCC2CN(C)C3)cn1 [MRGG045263a] | – | > 45 |

| SMILES | Kd [1] [µM] | Kd [2] [µM] |
| --- | --- | --- |
| Cc1cc(OCc2ccccc2)nc(N(C)C2CCN(C3CC3)C2)n1 (stereo not drawn) [MRGG045325a] | – | > 45 |
| CC(NC(=O)CN(C)Cc1ccc(Cl)c(Cl)c1)c1ccccc1 (stereo not drawn) [MRGG044839a] | – | > 45 |
| CN(CCc1ccccc1F)C(=O)c1cnc2sccn12 [MRGG045268a] | – | > 45 |
| N#Cc1cc(C(F)(F)F)cc(N2CCCN(C3CC3)CC2)n1 [MRGG045289a] | – | > 45 |
| O=C(c1ccccc1)N1CCC(CN(C2CC2)C2CC2)C1 (stereo not drawn) [MRGG045320a] | – | > 45 |
| Cc1nc(N(C)C)sc1CCNc1cc(C(F)(F)F)cc(C#N)n1 [MRGG044814a] | – | > 45 |
| CC(C)(C)OC(=O)N1C[C@@H](Cc2ccccc2)[C@H](O)C1 [MRGG044809a] | – | > 45 |
| N#Cc1cc(Br)cc(N2CCCC2)c1 [MRGG044812a] | – | > 45 |
| CN(C(=O)Cc1coc2ccccc12)C1CCN(C(=O)OC(C)(C)C)C1 (stereo not drawn) [MRGG045302a] | – | > 45 |
| CN1CCC2(CCCN(C(=O)c3cccnc3C(N)=O)C2)C1 (stereo not drawn) [MRGG045271a] | – | > 45 |
| COc1cc(C)nc(NC(=O)c2ccoc2C2CC2)n1 [MRGG044772b] | – | > 45 |
| COc1cccc2c1OCCCN(C(=O)c1cn3ccsc3n1)C2 [MRGG044787a] | – | > 45 |
| CN1CC(N(C)C(=O)CCc2ccc3cc(O)c(O)cc3c2)C1 [MRGG045336a] | – | > 45 |
| COc1cccc([C@@H]2[C@@H](NC3CCN(C4CC4)C3)CCN2C2CC2)c1 (stereo partly drawn) [MRGG045319a] | – | > 45 |
| C[C@@H]1CN(S(=O)(=O)c2ccc3ncsc3c2)[C@@H](C)CN1C [MRGG045304a] | – | > 45 |
| CN(C1CCN(C2CC2)C1)S(=O)(=O)c1cccc2ccoc12 (stereo not drawn) [MRGG045312a] | – | > 45 |
| CNC(=O)[C@@H](NC(=O)c1ccc2[nH]ccc2n1)C(C)C [MRGG044793a] | – | > 45 |
| O=C(NCc1ccc2c(c1)OCO2)c1ccc2snnc2c1 [MRGG044780a] | – | 17 |
| NC(=O)C1(NC(=O)c2ccc3cccnc3c2)Cc2ccccc2C1 [MRGG045265a] | – | > 45 |
| c1ccc2c(c1)OCCCC2NC1CCN(C2CC2)C1 (stereo not drawn) [MRGG044835a] | – | > 45 |
| CC(NC(=O)c1ccc2c(c1)NC(=O)CO2)c1cccc(Cl)c1 (stereo not drawn) [MRGG044791a] | – | 36 |
